Experimental data taken from patent US20070004036A1, “Methods and compositions for keratinocyte culture” (priority 2005, published 2007).

System: Human dermal adult and newborn skin fibroblasts
Experiment: Fibroblast proliferation in SFM and serum-containing media
Type: cell-based
Settings: primary and secondary culture, FIG. 5
Protocol: Human dermal adult and newborn skin fibroblasts were cultured in a SFM and serum-containing media (DMEM 5% FBS). Collagenase (1 μg/ml) was added to the DMEM serum free media (SFM) and tested on primary and secondary culture of human adult and newborn fibroblasts. In both cases (SFM and DMEM 5%) Collagenase increase cell proliferation up to 2-2.5 fold over the controls.

In the case of Collagenase, the “increase in cell proliferation over the controls” value (DMEM 5% FBS) is reported as 2-2.5 fold and the “increase in cell proliferation over the controls” value (SFM, collagenase 1 μg/ml) is reported as 2-2.5 fold.
